Assay results: paper PMC12627933, “A First-In-Human Study of the SUMOylation Inhibitor Subasumstat in Patients with Advanced/Metastatic Solid Tumors or Relapsed/Refractory Hematologic Malignancies” (Cancer Research Communications, 2025)
Several values for one entry are separate records, joined by “and”; a condition that tells them apart may be missing. Equal entries are not always repeated.

Assay: Safety: treatment-emergent adverse events (NCI CTCAE v5.0; CRS per ASTCT), phase I/II study NCT03648372
Format: in vivo
Protocol: This study comprised two parts: a phase I dose escalation and a phase II dose expansion (Fig. 1). In the dose-escalation phase, patients were enrolled to receive subasumstat intravenously as a 1-hour (±10 minutes) infusion on days 1, 4, 8, and 11 of a 21-day cycle (biweekly schedule). […] Dose escalation was based on cohort with an adaptive design using Bayesian logistic regression modeling with overdose control. The starting dose of subasumstat was based on Good Laboratory Practice animal toxicity studies and supported by the estimation of a minimum anticipated biologically effective level. A detailed description of dose-limiting toxicities (DLT) is presented in the Supplementary Methods.
The phase II dose-expansion portion enrolled patients to receive the recommended phase II dose (RP2D) determined in phase I, with each cohort assessed separately using an adaptive two-stage design for a single proportion (see Supplementary Methods). For stage 1, each cohort was analyzed when a prespecified number of patients were enrolled and had the potential to have at least one posttreatment scan [i.e., after the first disease assessment, 2 months from cycle 1 day 1 (C1D1)]. If the prespecified minimal response rate was not achieved in the first stage for a given cohort, that cohort would be closed to enrollment. […] The final analysis of the primary endpoints for each cohort would take place when all ongoing patients had the opportunity to complete the 6-month disease assessment. Across both phases, patients received subasumstat for up to 1 year or until confirmed disease progression, unacceptable toxicity, if any withdrawal criterion from the study was met, or if discontinuation of subasumstat occurred.
The occurrence of DLTs was assessed during cycle 1 (DLTs are described in the Supplementary Methods). Treatment-emergent adverse events (TEAE) were graded according to NCI Common Terminology Criteria for Adverse Events version 5.0, except for cytokine release syndrome (CRS), which was graded according to the American Society for Transplantation and Cellular Therapy Consensus Grading for CRS ([20]).
It was anticipated that approximately 70 DLT-evaluable patients would be enrolled for dose escalation. The safety analysis set included all patients who received at least one dose, even if incomplete, of subasumstat. […] The overall response rate (ORR) was defined as the proportion of patients who achieved complete response and partial response (PR) during the study. The disease control rate (DCR) was defined as the proportion of patients who achieved […] as per RECIST v1.1 for solid tumors or Lugano classification for lymphomas. […] Progression-free survival was summarized descriptively using the Kaplan–Meier method.

Cc1sc(C(=O)c2cncnc2N[C@@H]2C[C@H](COS(N)(=O)=O)[C@@H](O)C2)cc1[C@@H]1NCCc2ccc(Cl)cc21 [subasumstat]
Subasumstat-related TEAE: Nausea (Phase II (n = 25)): 4 (16.0) n (%)
Subasumstat-related TEAE: Pyrexia (Phase II (n = 25)): 9 (36.0) n (%)
Subasumstat-related TEAE: Vomiting (Phase II (n = 25)): 1 (4.0) n (%)
TEAE: Abdominal distension (Phase II (n = 25)): 1 (4.0) n (%)
TEAE: Abdominal pain (Phase II (n = 25)): 4 (16.0) n (%)
TEAE: Anemia (Phase II (n = 25)): 7 (28.0) n (%)
TEAE: Arthralgia (Phase II (n = 25)): 5 (20.0) n (%)
TEAE: Back pain (Phase II (n = 25)): 2 (8.0) n (%)
TEAE: CRS (Phase II (n = 25)): 3 (12.0) n (%)
TEAE: Chills (Phase II (n = 25)): 8 (32.0) n (%)
TEAE: Constipation (Phase II (n = 25)): 2 (8.0) n (%)
TEAE: Decreased appetite (Phase II (n = 25)): 5 (20.0) n (%)
TEAE: Dehydration (Phase II (n = 25)): 2 (8.0) n (%)
TEAE: Diarrhea (Phase II (n = 25)): 10 (40.0) n (%)
TEAE: Dyspnea (Phase II (n = 25)): 4 (16.0) n (%)
TEAE: Fatigue (Phase II (n = 25)): 9 (36.0) n (%)
TEAE: Headache (Phase II (n = 25)): 7 (28.0) n (%)
TEAE: Hypophosphatemia (Phase II (n = 25)): 0 n (%)
TEAE: Insomnia (Phase II (n = 25)): 2 (8.0) n (%)
TEAE: Nausea (Phase II (n = 25)): 4 (16.0) n (%)
TEAE: Peripheral edema (Phase II (n = 25)): 2 (8.0) n (%)
TEAE: Pleural effusion (Phase II (n = 25)): 3 (12.0) n (%)
TEAE: Pyrexia (Phase II (n = 25)): 11 (44.0) n (%)
TEAE: Stomatitis (Phase II (n = 25)): 3 (12.0) n (%)
TEAE: Vomiting (Phase II (n = 25)): 2 (8.0) n (%)
TEAEs (Phase II (n = 25)): 24 (96.0) n (%)
TEAEs leading to discontinuation (Phase II (n = 25)): 4 (16.0) n (%)
TEAEs leading to discontinuation related to subasumstat (Phase II (n = 25)): 1 (4.0) n (%)
TEAEs related to subasumstat (Phase II (n = 25)): 22 (88.0) n (%)
AESI (adverse event of special interest) (Total (N = 109)): 12 (11.0) n (%)
AESI related to subasumstat (Total (N = 109)): 12 (11.0) n (%)
AESI: CRS (Total (N = 109)): 12 (11.0) n (%)
Grade ≥3 TEAE: Abdominal pain (Total (N = 109)): 6 (5.5) n (%)
Grade ≥3 TEAE: Acute kidney injury (Total (N = 109)): 4 (3.7) n (%)
Grade ≥3 TEAE: Anemia (Total (N = 109)): 14 (12.8) n (%)
Grade ≥3 TEAE: Aspartate aminotransferase increased (Total (N = 109)): 2 (1.8) n (%)
Grade ≥3 TEAE: Blood bilirubin increased (Total (N = 109)): 2 (1.8) n (%)
Grade ≥3 TEAE: Dyspnea (Total (N = 109)): 4 (3.7) n (%)
Grade ≥3 TEAE: Fatigue (Total (N = 109)): 5 (4.6) n (%)
Grade ≥3 TEAE: Hyperbilirubinemia (Total (N = 109)): 2 (1.8) n (%)
Grade ≥3 TEAE: Hypertension (Total (N = 109)): 2 (1.8) n (%)
Grade ≥3 TEAE: Hypokalemia (Total (N = 109)): 7 (6.4) n (%)
Grade ≥3 TEAE: Hypomagnesemia (Total (N = 109)): 2 (1.8) n (%)
Grade ≥3 TEAE: Hypophosphatemia (Total (N = 109)): 2 (1.8) n (%)
Grade ≥3 TEAE: Lymphocyte count decreased (Total (N = 109)): 5 (4.6) n (%)
Grade ≥3 TEAE: Lymphopenia (Total (N = 109)): 2 (1.8) n (%)
Grade ≥3 TEAE: Muscular weakness (Total (N = 109)): 2 (1.8) n (%)
Grade ≥3 TEAE: Nausea (Total (N = 109)): 2 (1.8) n (%)
Grade ≥3 TEAE: Neutropenia (Total (N = 109)): 4 (3.7) n (%)
Grade ≥3 TEAE: Platelet count increased (Total (N = 109)): 3 (2.8) n (%)
Grade ≥3 TEAE: Pleural effusion (Total (N = 109)): 2 (1.8) n (%)
Grade ≥3 TEAE: Pneumonia (Total (N = 109)): 2 (1.8) n (%)
Grade ≥3 TEAE: Pneumonitis (Total (N = 109)): 2 (1.8) n (%)
Grade ≥3 TEAE: Pyrexia (Total (N = 109)): 2 (1.8) n (%)
Grade ≥3 TEAE: Small intestinal obstruction (Total (N = 109)): 4 (3.7) n (%)
Grade ≥3 TEAE: Thrombocytopenia (Total (N = 109)): 2 (1.8) n (%)
Grade ≥3 TEAE: Vomiting (Total (N = 109)): 4 (3.7) n (%)
Grade ≥3 TEAEs (Total (N = 109)): 66 (60.6) n (%)
Grade ≥3 TEAEs related to subasumstat (Total (N = 109)): 29 (26.6) n (%)
On-study deaths (Total (N = 109)): 12 (11.0) n (%)
Patients with at least one grade ≥3 TEAE (Total (N = 109)): 66 (60.6) n (%)
Serious adverse events (Total (N = 109)): 48 (44.0) n (%)
Serious adverse events related to subasumstat (Total (N = 109)): 12 (11.0) n (%)
TEAE: Abdominal distension (Total (N = 109)): 12 (11.0) n (%)
TEAE: Abdominal pain (Total (N = 109)): 21 (19.3) n (%)
TEAE: Anemia (Total (N = 109)): 19 (17.4) n (%)
TEAE: Arthralgia (Total (N = 109)): 17 (15.6) n (%)
TEAE: Back pain (Total (N = 109)): 14 (12.8) n (%)
TEAE: CRS (Total (N = 109)): 12 (11.0) n (%)
TEAE: Chills (Total (N = 109)): 28 (25.7) n (%)
TEAE: Constipation (Total (N = 109)): 16 (14.7) n (%)
TEAE: Decreased appetite (Total (N = 109)): 31 (28.4) n (%)
TEAE: Dehydration (Total (N = 109)): 12 (11.0) n (%)
TEAE: Diarrhea (Total (N = 109)): 39 (35.8) n (%)
TEAE: Dyspnea (Total (N = 109)): 26 (23.9) n (%)
TEAE: Fatigue (Total (N = 109)): 51 (46.8) n (%)
TEAE: Headache (Total (N = 109)): 37 (33.9) n (%)
TEAE: Hypophosphatemia (Total (N = 109)): 11 (10.1) n (%)
TEAE: Insomnia (Total (N = 109)): 13 (11.9) n (%)
TEAE: Nausea (Total (N = 109)): 45 (41.3) n (%)
TEAE: Peripheral edema (Total (N = 109)): 17 (15.6) n (%)
TEAE: Pleural effusion (Total (N = 109)): 12 (11.0) n (%)
TEAE: Pyrexia (Total (N = 109)): 39 (35.8) n (%)
TEAE: Stomatitis (Total (N = 109)): 11 (10.1) n (%)
TEAE: Vomiting (Total (N = 109)): 29 (26.6) n (%)
TEAEs (Total (N = 109)): 105 (96.3) n (%)
TEAEs leading to discontinuation (Total (N = 109)): 12 (11.0) n (%)
TEAEs leading to discontinuation related to subasumstat (Total (N = 109)): 4 (3.7) n (%)
TEAEs related to subasumstat (Total (N = 109)): 87 (79.8) n (%)
Grade ≥3 subasumstat-related TEAE: Anemia (Total (n = 109)): 4 (3.7) n (%)
Grade ≥3 subasumstat-related TEAE: Aspartate aminotransferase increased (Total (n = 109)): 2 (1.8) n (%)
Grade ≥3 subasumstat-related TEAE: Hypokalemia (Total (n = 109)): 2 (1.8) n (%)
Grade ≥3 subasumstat-related TEAE: Lymphocyte count decreased (Total (n = 109)): 4 (3.7) n (%)
Grade ≥3 subasumstat-related TEAE: Muscular weakness (Total (n = 109)): 2 (1.8) n (%)
Grade ≥3 subasumstat-related TEAE: Neutropenia (Total (n = 109)): 4 (3.7) n (%)
Grade ≥3 subasumstat-related TEAE: Platelet count increased (Total (n = 109)): 3 (2.8) n (%)
Grade ≥3 subasumstat-related TEAE: Pneumonitis (Total (n = 109)): 2 (1.8) n (%)
Grade ≥3 subasumstat-related TEAE: Thrombocytopenia (Total (n = 109)): 2 (1.8) n (%)
Patients with at least one grade ≥3 subasumstat-related TEAE (Total (n = 109)): 29 (26.6) n (%)
Subasumstat-related TEAE: Anemia (Total (n = 109)): 8 (7.3) n (%)
Subasumstat-related TEAE: CRS (Total (n = 109)): 12 (11.0) n (%)
Subasumstat-related TEAE: Chills (Total (n = 109)): 23 (21.1) n (%)
Subasumstat-related TEAE: Decreased appetite (Total (n = 109)): 13 (11.9) n (%)
Subasumstat-related TEAE: Diarrhea (Total (n = 109)): 21 (19.3) n (%)
Subasumstat-related TEAE: Dyspnea (Total (n = 109)): 6 (5.5) n (%)
Subasumstat-related TEAE: Fatigue (Total (n = 109)): 34 (31.2) n (%)
Subasumstat-related TEAE: Headache (Total (n = 109)): 26 (23.9) n (%)
Subasumstat-related TEAE: Hypokalemia (Total (n = 109)): 7 (6.4) n (%)
Subasumstat-related TEAE: IRR (Total (n = 109)): 6 (5.5) n (%)
Subasumstat-related TEAE: Myalgia (Total (n = 109)): 8 (7.3) n (%)
Subasumstat-related TEAE: Nausea (Total (n = 109)): 33 (30.3) n (%)
Subasumstat-related TEAE: Pyrexia (Total (n = 109)): 32 (29.4) n (%)
Subasumstat-related TEAE: Vomiting (Total (n = 109)): 14 (12.8) n (%)
Severity of CRS (all incidences, most nonserious): grade 1 or 2
Discontinuation of subasumstat due to TEAEs (all patients (N = 109)): 11%
Grade ≥3 TEAE abdominal pain (all patients (N = 109)): 5.5%
Grade ≥3 TEAE anemia (all patients (N = 109)): 12.8% and 13%
Grade ≥3 TEAE hypokalemia (all patients (N = 109)): 6.4%
Grade ≥3 TEAEs (all patients (N = 109)): 60.6%
On-study deaths (all patients (N = 109)): 11.0%
On-study deaths related to subasumstat (all patients (N = 109)): none
Subasumstat-related TEAE fatigue (all patients (N = 109)): 31.2%
Subasumstat-related TEAE nausea (all patients (N = 109)): 30.3%
Subasumstat-related TEAE pyrexia (all patients (N = 109)): 29.4%
Subasumstat-related grade ≥3 TEAEs (all patients (N = 109)): 26.6%
Subasumstat-related grade ≥3 anemia (all patients (N = 109)): 3.7%
Subasumstat-related grade ≥3 decreased lymphocyte blood cell count (all patients (N = 109)): 3.7%
Subasumstat-related grade ≥3 decreased platelet count (all patients (N = 109)): 2.8%
Subasumstat-related grade ≥3 neutropenia (all patients (N = 109)): 3.7%
TEAE diarrhea (all patients (N = 109)): 36% and 35.8%
TEAE fatigue (all patients (N = 109)): 47% and 46.8%
TEAE headache (all patients (N = 109)): 33.9%
TEAE nausea (all patients (N = 109)): 41% and 41.3%
TEAE pyrexia (all patients (N = 109)): 36% and 35.8%
TEAEs related to subasumstat (all patients (N = 109)): 79.8%
CRS (all patients (N = 109), 12 patients, all related to subasumstat): 11%
Infusion-related reactions (IRR) (all patients (N = 109), seven patients): 6.4% and 6%
Severity of IRR (all seven patients with IRR): grade 1 or 2
Dose from which CRS was observed (in vivo): ≥ 60 mg
IRR deemed related to subasumstat (of seven patients with IRR): six
